A short description of this data set: Pharmacokinetics in mice, single gavage. The format is in vivo, CD-1 mouse (male). As to conditions: CD-1 mouse, 300 mpk, plasma. On the procedure: Experimental purpose: To test the pharmacokinetics of the compound in mice
CD-1 mouse (male), vehicle (0.5% (w/v) methylcellulose 0.5% (v/v) Tween 80 aqueous solution), trifluoroacetate of compound 0027.
The vehicle was an aqueous solution of 0.5% (w/v) methylcellulose and 0.5% (v/v) Tween 80, and it was prepared according to the following procedure:
Formulation of preparations for intragastric administration: […]
a. An appropriate amount of the test product was weighed and put into a glass bottle;
b. 70% volume of vehicle (0.5% (w/v) methyl cellulose 0.5% (v/v) Tween 80 aqueous solution) was added;
c. The preparation was stirred until it was visually homogeneous, and subjected to ultrasound in water bath as needed;
e. Make up the remaining volume of 0.5% methylcellulose+0.5% Tween 80, and the mixture was stirred until being visually homogeneous.
Animals in groups 1 and 2 were administrated 5 mg/mL and 30 mg/mL compounds by single gavage, with a dose volume of 10 mL/kg.
The body weight of the animals was weighed before administration, and the administration volume was calculated based on the body weight.
Whole blood samples (30 μL) were collected at the prescribed time (0.25, 0.5, 1, 2, 4, 6, 8, 24 h) through saphenous vein blood collection, and the actual blood collection time was recorded in the test record. […]

`COc1cc(OC)c(Cl)c(-c2nc(-c3nc(-c4cn(C)nc4C)cnc3N)cn(C)c2=O)c1` yielded a Tlast of 24.0 h.

The record behind these values is patent US11597722B2, “Crystal form D of pyrazine-2(1H)-ketone compound and preparation method therefor” (ZHANGZHOU PIEN TZE HUANG PHARMACEUTICAL CO., LTD., priority 2019, dated 2023).
